Laboratory results taken from PubChem BioAssay (NCI).
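Compound exposure: 48 hours, 5 concentrations, 96-well plates. GI50 marks 50% less growth. The concentration for full growth arrest is given as TGI.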

Experiments:
Assay in all cases: inhibition of tumour cell growth, NCI panel, 48 h
OVCAR-5 ovarian = tested on: OVCAR-5 ovarian
DU-145 prostate = tested on: DU-145 prostate
NCI-H460 lung = tested on: NCI-H460 lung
HCT-15 colon = tested on: HCT-15 colon
UO-31 renal = tested on: UO-31 renal
A498 renal = tested on: A498 renal
U251 CNS = tested on: U251 CNS
K-562 leukemia = tested on: K-562 leukemia
OVCAR-3 ovarian = tested on: OVCAR-3 ovarian
OVCAR-8 ovarian = tested on: OVCAR-8 ovarian
ACHN renal = tested on: ACHN renal
SK-MEL-28 melanoma = tested on: SK-MEL-28 melanoma
SN12C renal = tested on: SN12C renal
HCT-116 colon = tested on: HCT-116 colon
TK-10 renal = tested on: TK-10 renal
SF-539 CNS = tested on: SF-539 CNS
HCC-2998 colon = tested on: HCC-2998 colon
MDA-MB-435 = tested on: MDA-MB-435
KM12 colon = tested on: KM12 colon
COLO 205 colon = tested on: COLO 205 colon
NCI-H522 lung = tested on: NCI-H522 lung
UACC-62 melanoma = tested on: UACC-62 melanoma
SNB-19 CNS = tested on: SNB-19 CNS
MCF7 breast = tested on: MCF7 breast
SW-620 colon = tested on: SW-620 colon
HL-60(TB) leukemia = tested on: HL-60(TB) leukemia
UACC-257 melanoma = tested on: UACC-257 melanoma
NCI-H226 lung = tested on: NCI-H226 lung
SK-MEL-5 melanoma = tested on: SK-MEL-5 melanoma
CAKI-1 renal = tested on: CAKI-1 renal
A549 NSCLC = tested on: A549 NSCLC
RPMI-8226 leukemia = tested on: RPMI-8226 leukemia
NCI/ADR-RES ovarian = tested on: NCI/ADR-RES ovarian
EKVX NSCLC = tested on: EKVX NSCLC
786-0 renal = tested on: 786-0 renal
OVCAR-4 ovarian = tested on: OVCAR-4 ovarian
RXF 393 renal = tested on: RXF 393 renal
MDA-MB-231 breast = tested on: MDA-MB-231 breast
MALME-3M melanoma = tested on: MALME-3M melanoma
PC-3 prostate = tested on: PC-3 prostate
HOP-62 NSCLC = tested on: HOP-62 NSCLC
SNB-75 CNS = tested on: SNB-75 CNS
MOLT-4 leukemia = tested on: MOLT-4 leukemia
IGROV1 ovarian = tested on: IGROV1 ovarian
HT29 colon = tested on: HT29 colon
NCI-H23 lung = tested on: NCI-H23 lung
HOP-92 NSCLC = tested on: HOP-92 NSCLC
BT-549 breast = tested on: BT-549 breast
T-47D breast = tested on: T-47D breast
LOX IMVI melanoma = tested on: LOX IMVI melanoma
SK-OV-3 ovarian = tested on: SK-OV-3 ovarian
HS 578T breast = tested on: HS 578T breast
SF-268 CNS = tested on: SF-268 CNS
CCRF-CEM leukemia = tested on: CCRF-CEM leukemia
SF-295 CNS = tested on: SF-295 CNS
SK-MEL-2 melanoma = tested on: SK-MEL-2 melanoma
M14 melanoma = tested on: M14 melanoma
SR leukemia = tested on: SR leukemia

Compound: CC(=O)c1c(C(F)(F)F)n([O-])c2ccc(C)cc2[n+]1=O
- GI50 (OVCAR-5 ovarian): 7 µM
- TGI (OVCAR-5 ovarian): 40.3 µM
- GI50 (DU-145 prostate): 1.43 µM
- TGI (DU-145 prostate): 3.07 µM
- GI50 (NCI-H460 lung): 1.39 µM
- TGI (NCI-H460 lung): > 39.8 µM
- GI50 (HCT-15 colon): 2.45 µM
- TGI (HCT-15 colon): 39.4 µM
- GI50 (UO-31 renal): 4.39 µM
- GI50 (A498 renal): 4.42 µM
- TGI (A498 renal): 18.9 µM
- GI50 (U251 CNS): 2.79 µM
- TGI (U251 CNS): > 35.4 µM
- GI50 (K-562 leukemia): 1.1 µM
- TGI (K-562 leukemia): 21.4 µM
- GI50 (OVCAR-3 ovarian): 7.09 µM
- TGI (OVCAR-3 ovarian): > 48.2 µM
- GI50 (OVCAR-8 ovarian): 3.82 µM
- TGI (OVCAR-8 ovarian): > 100 µM
- GI50 (ACHN renal): 3.44 µM
- TGI (ACHN renal): 20.4 µM
- GI50 (SK-MEL-28 melanoma): 23.3 µM
- TGI (SK-MEL-28 melanoma): > 100 µM
- GI50 (SN12C renal): 1.5 µM
- TGI (SN12C renal): 4.72 µM
- GI50 (HCT-116 colon): 3.89 µM
- TGI (HCT-116 colon): > 41.1 µM
- GI50 (TK-10 renal): 5.07 µM
- TGI (TK-10 renal): > 50.5 µM
- GI50 (SF-539 CNS): 1.78 µM
- TGI (SF-539 CNS): 5.1 µM
- GI50 (HCC-2998 colon): 1.89 µM
- TGI (HCC-2998 colon): 8.53 µM
- GI50 (MDA-MB-435): 6.99 µM
- TGI (MDA-MB-435): 35.9 µM
- GI50 (KM12 colon): 5.04 µM
- TGI (KM12 colon): > 52.2 µM
- GI50 (COLO 205 colon): 3.35 µM
- TGI (COLO 205 colon): > 43.8 µM
- GI50 (NCI-H522 lung): 3 µM
- TGI (NCI-H522 lung): > 24.2 µM
- GI50 (UACC-62 melanoma): 1.31 µM
- TGI (UACC-62 melanoma): 3.34 µM
- GI50 (SNB-19 CNS): 6.03 µM
- TGI (SNB-19 CNS): > 100 µM
- GI50 (MCF7 breast): 4 µM
- TGI (MCF7 breast): > 100 µM
- GI50 (SW-620 colon): 3.54 µM
- TGI (SW-620 colon): > 100 µM
- GI50 (HL-60(TB) leukemia): 1.92 µM
- TGI (HL-60(TB) leukemia): 10.5 µM
- GI50 (UACC-257 melanoma): 4.42 µM
- TGI (UACC-257 melanoma): > 46.8 µM
- GI50 (NCI-H226 lung): 1.71 µM
- TGI (NCI-H226 lung): 6.85 µM
- GI50 (SK-MEL-5 melanoma): 1.07 µM
- TGI (SK-MEL-5 melanoma): 3 µM
- GI50 (CAKI-1 renal): 3.46 µM
- TGI (CAKI-1 renal): 24.6 µM
- GI50 (A549 NSCLC): 4.48 µM
- TGI (A549 NSCLC): 26.6 µM
- GI50 (RPMI-8226 leukemia): 0.686 µM
- TGI (RPMI-8226 leukemia): 4.04 µM
- GI50 (NCI/ADR-RES ovarian): 3.34 µM
- TGI (NCI/ADR-RES ovarian): > 35.5 µM
- GI50 (EKVX NSCLC): 1.19 µM
- TGI (EKVX NSCLC): 4.59 µM
- GI50 (786-0 renal): 1.47 µM
- TGI (786-0 renal): 4.7 µM
- GI50 (OVCAR-4 ovarian): 4.88 µM
- TGI (OVCAR-4 ovarian): > 100 µM
- GI50 (RXF 393 renal): 10.2 µM
- TGI (RXF 393 renal): > 100 µM
- GI50 (MDA-MB-231 breast): 1.82 µM
- TGI (MDA-MB-231 breast): 5.52 µM
- GI50 (MALME-3M melanoma): 2.54 µM
- TGI (MALME-3M melanoma): 15.6 µM
- GI50 (PC-3 prostate): 1.34 µM
- TGI (PC-3 prostate): 14.1 µM
- GI50 (HOP-62 NSCLC): 3.64 µM
- TGI (HOP-62 NSCLC): 21.9 µM
- GI50 (SNB-75 CNS): 3.28 µM
- TGI (SNB-75 CNS): 18.1 µM
- GI50 (MOLT-4 leukemia): 0.0504 µM
- TGI (MOLT-4 leukemia): 5.2 µM
- GI50 (IGROV1 ovarian): 4.14 µM
- TGI (IGROV1 ovarian): > 100 µM
- GI50 (HT29 colon): 4.96 µM
- TGI (HT29 colon): > 100 µM
- GI50 (NCI-H23 lung): 2.08 µM
- TGI (NCI-H23 lung): 11.2 µM
- GI50 (HOP-92 NSCLC): 1.11 µM
- TGI (HOP-92 NSCLC): 4.81 µM
- GI50 (BT-549 breast): 2.54 µM
- TGI (BT-549 breast): 8.66 µM
- GI50 (T-47D breast): 6.52 µM
- TGI (T-47D breast): > 67.1 µM
- GI50 (LOX IMVI melanoma): 3.29 µM
- TGI (LOX IMVI melanoma): > 44.2 µM
- GI50 (SK-OV-3 ovarian): 5.02 µM
- TGI (SK-OV-3 ovarian): > 100 µM
- GI50 (HS 578T breast): 3.43 µM
- TGI (HS 578T breast): > 58.5 µM
- GI50 (SF-268 CNS): 3.41 µM
- TGI (SF-268 CNS): > 38.9 µM
- GI50 (CCRF-CEM leukemia): 0.555 µM
- TGI (CCRF-CEM leukemia): 4.83 µM
- GI50 (SF-295 CNS): 5.71 µM
- TGI (SF-295 CNS): > 44.2 µM
- GI50 (SK-MEL-2 melanoma): 15.5 µM
- TGI (SK-MEL-2 melanoma): > 66.5 µM
- GI50 (M14 melanoma): 2.41 µM
- TGI (M14 melanoma): 8.88 µM

Compound: CCOc1nc(N)nc(C)c1N=Nc1ccc(Cl)cc1
- TGI (OVCAR-5 ovarian): > 100 µM
- TGI (DU-145 prostate): > 100 µM
- TGI (NCI-H460 lung): > 100 µM
- TGI (HCT-15 colon): > 100 µM
- TGI (UO-31 renal): > 100 µM
- TGI (U251 CNS): > 100 µM
- TGI (K-562 leukemia): > 100 µM
- TGI (OVCAR-3 ovarian): > 100 µM
- TGI (OVCAR-8 ovarian): > 100 µM
- TGI (ACHN renal): > 100 µM
- TGI (SK-MEL-28 melanoma): > 100 µM
- TGI (SN12C renal): 86.4 µM
- TGI (HCT-116 colon): > 100 µM
- TGI (TK-10 renal): > 100 µM
- TGI (SF-539 CNS): > 100 µM
- TGI (MDA-MB-435): > 100 µM
- TGI (KM12 colon): > 100 µM
- TGI (SR leukemia): 23.9 µM
- TGI (COLO 205 colon): > 100 µM
- TGI (NCI-H522 lung): > 100 µM
- TGI (UACC-62 melanoma): > 100 µM
- TGI (SNB-19 CNS): > 100 µM
- TGI (MCF7 breast): > 100 µM
- TGI (SW-620 colon): > 100 µM
- TGI (HL-60(TB) leukemia): > 100 µM
- TGI (UACC-257 melanoma): > 100 µM
- TGI (NCI-H226 lung): > 100 µM
- TGI (SK-MEL-5 melanoma): > 100 µM
- TGI (CAKI-1 renal): > 100 µM
- TGI (A549 NSCLC): > 100 µM
- TGI (RPMI-8226 leukemia): 88.4 µM
- TGI (NCI/ADR-RES ovarian): > 100 µM
- TGI (EKVX NSCLC): > 100 µM
- TGI (786-0 renal): > 100 µM
- TGI (OVCAR-4 ovarian): > 100 µM
- TGI (RXF 393 renal): > 100 µM
- TGI (MDA-MB-231 breast): > 100 µM
- TGI (MALME-3M melanoma): > 100 µM
- TGI (PC-3 prostate): > 100 µM
- TGI (HOP-62 NSCLC): > 100 µM
- TGI (SNB-75 CNS): > 100 µM
- TGI (MOLT-4 leukemia): > 100 µM
- TGI (IGROV1 ovarian): > 100 µM
- TGI (HT29 colon): > 100 µM
- TGI (NCI-H23 lung): > 100 µM
- TGI (HOP-92 NSCLC): 88 µM
- TGI (BT-549 breast): > 100 µM
- TGI (T-47D breast): > 100 µM
- TGI (LOX IMVI melanoma): > 100 µM
- TGI (SK-OV-3 ovarian): > 100 µM
- TGI (HS 578T breast): 38.4 µM
- TGI (SF-268 CNS): > 100 µM
- TGI (CCRF-CEM leukemia): > 100 µM
- TGI (SF-295 CNS): 94.1 µM
- TGI (SK-MEL-2 melanoma): > 100 µM
- TGI (M14 melanoma): > 100 µM
